Source: patent US20240246964A1 (Arbutus Biopharma Corporation, priority 2021, published 2024)

How the values were obtained:
[1] = target: PD-L1 His protein / PD-1 Fc protein (Homo sapiens (Human), UniProt Q9NZQ7); assay: HTRF Assay (PD-1/PD-L1 interaction); type: binding; conditions: PD-L1 His 6 nM, PD-1 Fc 6 nM
human PD-L1 = human PD-L1 (Homo sapiens (Human), UniProt Q9NZQ7); assay: T cell activation luciferase reporter cell culture system (T Cell Activation Assay); type: cell-based; conditions: luciferase reporter assay; PD-L1 aAPC/CHO-K1 cells with PD-1 effector Jurkat T cells
Sequence of human PD-L1 (Q9NZQ7 19-290): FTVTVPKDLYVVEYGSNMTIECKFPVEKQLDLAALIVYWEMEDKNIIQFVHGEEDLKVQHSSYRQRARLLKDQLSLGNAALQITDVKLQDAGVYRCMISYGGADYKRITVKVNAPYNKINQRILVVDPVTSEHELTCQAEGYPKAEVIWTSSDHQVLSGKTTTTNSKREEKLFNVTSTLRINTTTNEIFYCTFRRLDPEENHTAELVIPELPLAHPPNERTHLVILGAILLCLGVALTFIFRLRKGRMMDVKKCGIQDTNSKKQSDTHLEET

Sequence of PD-L1 His protein / PD-1 Fc protein (Q9NZQ7 19-238): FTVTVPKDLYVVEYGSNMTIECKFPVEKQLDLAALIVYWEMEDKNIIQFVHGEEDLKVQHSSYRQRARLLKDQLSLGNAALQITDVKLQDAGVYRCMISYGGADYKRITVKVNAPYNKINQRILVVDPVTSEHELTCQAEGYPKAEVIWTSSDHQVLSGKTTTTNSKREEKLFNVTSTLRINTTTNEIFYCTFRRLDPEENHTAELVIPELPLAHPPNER

SMILES: COc1nc(-c2cccc(-c3ccnc(-c4ccc5c(CNC6CCN(C(C)=O)CC6)nn(C)c5c4)c3Cl)c2Cl)ccc1CNC1CCN(C(C)=O)CC1 [Example 263, 1-(4-(((6-(3-(2-(3-(((1-Acetylpiperidin-4-yl)amino)methyl)-1-methyl-1H-indazol-6-yl)-3-chloropyridin-4-yl)-2-chlorophenyl)-2-methoxypyridin-3-yl)methyl)amino)piperidin-1-yl)ethan-1-one]
- IC50 [1]: 1.71 nM
- EC50 (human PD-L1): ≥ 10000 nM

SMILES: COc1cc(-c2nccc(-c3cccc4c3CC[C@@H]4Oc3nc(OC)c(CNC[C@@H]4CCC(=O)N4)cc3C(F)(F)F)c2Cl)ccc1CNC[C@@H]1CCC(=O)N1 [Example 269, (S)-5-((((6-(((S)-4-(3-chloro-2-(3-methoxy-4-(((((S)-5-oxopyrrolidin-2-yl)methyl)amino)methyl)phenyl)pyridin-4-yl)-2,3-dihydro-1H-inden-1-yl)oxy)-2-methoxy-5-(trifluoromethyl)pyridin-3-yl)methyl)amino)methyl)pyrrolidin-2-one]
- IC50 [1]: 12.5 nM
- EC50 (human PD-L1): 5.54 nM

SMILES: COc1cc(-c2nccc(-c3cccc(-c4ccc(CNC[C@H](C)O)c(OC)n4)c3Cl)c2Cl)cc2c1CN(CC(N)=O)CC2 [Example 275, (S)-2-(6-(3-Chloro-4-(2-chloro-3-(5-(((2-hydroxypropyl)amino)methyl)-6-methoxypyridin-2-yl)phenyl)pyridin-2-yl)-8-methoxy-3,4-dihydroisoquinolin-2(1H)-yl)acetamide]
- IC50 [1]: 5.36 nM
- EC50 (human PD-L1): ≥ 10000 nM

SMILES: CNCc1ccc(-c2cccc(-c3ccnc(-c4ccc5c(CNC)cn(C)c5c4)c3Cl)c2Cl)nc1OC [Example 276, 1-(6-(2-Chloro-3-(3-chloro-2-(1-methyl-3-((methylamino)methyl)-1H-indol-6-yl)pyridin-4-yl)phenyl)-2-methoxypyridin-3-yl)-N-methylmethanamine]
- IC50 [1]: 1.04 nM
- EC50 (human PD-L1): ≥ 10000 nM

SMILES: CNCc1ccc(-c2cccc(-c3ccnc(-c4ccc(CN5CC[C@H](C(=O)OC(C)C)C5)c(OC)c4)c3Cl)c2Cl)nc1OC [Example 278, Isopropyl (S)-1-(4-(3-chloro-4-(2-chloro-3-(6-methoxy-5-((methylamino)methyl)pyridin-2-yl)phenyl)pyridin-2-yl)-2-methoxybenzyl)pyrrolidine-3-carboxylate]
- IC50 [1]: 404 nM
- EC50 (human PD-L1): 258 nM

SMILES: CNCc1ccc(-c2cccc(-c3ccnc(-c4ccc(CNCCC(=O)OC(C)C)c(OC)c4)c3Cl)c2Cl)nc1OC [Example 279, Isopropyl 3-((4-(3-chloro-4-(2-chloro-3-(6-methoxy-5-((methylamino)methyl)pyridin-2-yl)phenyl)pyridin-2-yl)-2-methoxybenzyl)amino)propanoate]
- IC50 [1]: 12.4 nM
- EC50 (human PD-L1): 224 nM

SMILES: CNCc1ccc(-c2cccc(-c3ccnc(-c4ccc(CNC[C@@H](O)CC(=O)OC(C)C)c(OC)c4)c3Cl)c2Cl)nc1OC [Example 280, Isopropyl (S)-4-((4-(3-chloro-4-(2-chloro-3-(6-methoxy-5-((methylamino)methyl)pyridin-2-yl)phenyl)pyridin-2-yl)-2-methoxybenzyl)amino)-3-hydroxybutanoate]
- IC50 [1]: 28.7 nM
- EC50 (human PD-L1): 111 nM

SMILES: CNCc1ccc(-c2cccc(-c3ccnc(-c4ccc(CN5CC6(CC(C(=O)OC(C)C)C6)C5)c(OC)c4)c3Cl)c2Cl)nc1OC [Example 281, Isopropyl 2-(4-(3-chloro-4-(2-chloro-3-(6-methoxy-5-((methylamino)methyl)pyridin-2-yl)phenyl)pyridin-2-yl)-2-methoxybenzyl)-2-azaspiro[3.3]heptane-6-carboxylate]
- IC50 [1]: 10.9 nM
- EC50 (human PD-L1): 153 nM

SMILES: COc1nc(-c2cccc(-c3ccnc(-c4ccc(CNC5CCN(C(C)=O)CC5)c(F)c4)c3Cl)c2Cl)ccc1CNC1CCN(C(C)=O)CC1 [Example 282, 1-(4-(((6-(3-(2-(4-(((1-Acetylpiperidin-4-yl)amino)methyl)-3-fluorophenyl)-3-chloropyridin-4-yl)-2-chlorophenyl)-2-methoxypyridin-3-yl)methyl)amino)piperidin-1-yl)ethan-1-one]
- IC50 [1]: 1.56 nM
- EC50 (human PD-L1): 85.3 nM
